# Experimental data published in PMC4822888, “Subtype-Selective Small Molecule Inhibitors Reveal a Fundamental Role for Nav1.7 in Nociceptor Electrogenesis, Axonal Conduction and Presynaptic Release” (PLoS ONE, 2016).
# Values joined by “and” are separate entries in the source; they are usually repeats but may differ in a detail not shown here. Equal values may be shown once.
# Columns and labels:
# L-type calcium channels = assay: Blockade of L-type calcium channels
# KvLQT = KvLQT (Homo sapiens, UniProt P51787); assay: Blockade of KvLQT potassium channels
# [1] = test system: human DRG neurons (hDRG neurons); assay: Voltage clamp of TTX-S current in human DRG neurons; assay type: cell-based
# [2] = test system: human DRG neurons (hDRG neurons); assay: Current clamp of action potentials in human DRG neurons; assay type: cell-based
# Adenosine A1 receptor = Adenosine A1 receptor (Homo sapiens, UniProt P30542); assay: Off target activity panel; assay type: binding; conditions: read-out: Inhibition at test concentration (%)
# Abl kinase receptor = Abl kinase receptor (Homo sapiens, UniProt P00519); assay: Off target activity panel; assay type: biochemical; conditions: read-out: Inhibition at test concentration (%)
# [3] = target: Angiotensin converting enzyme (Homo sapiens, UniProt P12821); assay: Off target activity panel; assay type: biochemical; conditions: read-out: Inhibition at test concentration (%)
# Acetylcholinesterase = Acetylcholinesterase (Homo sapiens, UniProt P22303); assay: Off target activity panel; assay type: biochemical; conditions: read-out: Inhibition at test concentration (%)
# AMPA receptor = assay: Off target activity panel; assay type: binding; conditions: 10 µM
# [4] = test system: Calcium channel L-type (dihydropyridine site); assay: Off target activity panel; assay type: binding; conditions: 10 µM
# [5] = test system: Calcium channel L-type (verapamil site); assay: Off target activity panel; assay type: binding; conditions: 10 µM
# Carbonic anhydrase II = Carbonic anhydrase II (Homo sapiens, UniProt P00918); assay: Off target activity panel; assay type: biochemical; conditions: read-out: Inhibition at test concentration (%)
# Choline transporter = Choline transporter (Homo sapiens, UniProt Q9GZV3); assay: Off target activity panel; assay type: binding; conditions: read-out: Inhibition at test concentration (%)
# [6] = target: Cholycystokinin 1 (CCKA) receptor (Homo sapiens, UniProt P32238); assay: Off target activity panel; assay type: binding; conditions: read-out: Inhibition at test concentration (%)
# Cyclooxygenase 1 = Cyclooxygenase 1 (Homo sapiens, UniProt P23219); assay: Off target activity panel; assay type: biochemical; conditions: read-out: Inhibition at test concentration (%)
# Delta opioid receptor = Delta opioid receptor (Homo sapiens, UniProt P41143); assay: Off target activity panel; assay type: binding; conditions: read-out: Inhibition at test concentration (%)
# Dopamine D1 receptor = Dopamine D1 receptor (Homo sapiens, UniProt P21728); assay: Off target activity panel; assay type: binding; conditions: read-out: Inhibition at test concentration (%)
# Histamine H2 receptor = Histamine H2 receptor (Homo sapiens, UniProt P25021); assay: Off target activity panel; assay type: binding; conditions: read-out: Inhibition at test concentration (%)
# Lyn A kinase = Lyn A kinase (Homo sapiens, UniProt P07948); assay: Off target activity panel; assay type: biochemical
# Matrix metalloprotease 9 = Matrix metalloprotease 9 (Homo sapiens, UniProt P14780); assay: Off target activity panel; assay type: biochemical; conditions: read-out: Inhibition at test concentration (%)
# [7] = target: Melanin-concentrating hormone receptor 1 (Homo sapiens, UniProt Q99705); assay: Off target activity panel; assay type: binding; conditions: read-out: Inhibition at test concentration (%)
# Monoamine oxidase A = Monoamine oxidase A (Homo sapiens, UniProt P21397); assay: Off target activity panel; assay type: biochemical; conditions: read-out: Inhibition at test concentration (%)
# [8] = Off target activity panel; assay type: binding; conditions: read-out: Inhibition at test concentration (%)
# Mu opiod receptor = Mu opiod receptor (Homo sapiens, UniProt P35372); assay: Off target activity panel; assay type: binding; conditions: read-out: Inhibition at test concentration (%)
# Neurokinin NK2 receptor = Neurokinin NK2 receptor (Homo sapiens, UniProt P21452); assay: Off target activity panel; assay type: binding; conditions: read-out: Inhibition at test concentration (%)
# [9] = test system: Nictotinic acetylcholine receptor; assay: Off target activity panel; assay type: binding; conditions: 10 µM
# [10] = test system: NMDA receptor (phencyclidine site); assay: Off target activity panel; assay type: binding; conditions: 10 µM
# [11] = target: Norepinephrine transporter (Homo sapiens, UniProt P23975); assay: Off target activity panel; assay type: binding; conditions: read-out: Inhibition at test concentration (%)
# PDE2A = PDE2A (Homo sapiens, UniProt O00408); assay: Off target activity panel; assay type: biochemical; conditions: read-out: Inhibition at test concentration (%)
# PDE5 = PDE5 (Homo sapiens, UniProt O76074); assay: Off target activity panel; assay type: biochemical; conditions: read-out: Inhibition at test concentration (%)
# PPAR gamma = target: T1, PPAR gamma (Homo sapiens, UniProt P37231); assay: Off target activity panel; assay type: binding
# T1 sequence (P37231 1-505): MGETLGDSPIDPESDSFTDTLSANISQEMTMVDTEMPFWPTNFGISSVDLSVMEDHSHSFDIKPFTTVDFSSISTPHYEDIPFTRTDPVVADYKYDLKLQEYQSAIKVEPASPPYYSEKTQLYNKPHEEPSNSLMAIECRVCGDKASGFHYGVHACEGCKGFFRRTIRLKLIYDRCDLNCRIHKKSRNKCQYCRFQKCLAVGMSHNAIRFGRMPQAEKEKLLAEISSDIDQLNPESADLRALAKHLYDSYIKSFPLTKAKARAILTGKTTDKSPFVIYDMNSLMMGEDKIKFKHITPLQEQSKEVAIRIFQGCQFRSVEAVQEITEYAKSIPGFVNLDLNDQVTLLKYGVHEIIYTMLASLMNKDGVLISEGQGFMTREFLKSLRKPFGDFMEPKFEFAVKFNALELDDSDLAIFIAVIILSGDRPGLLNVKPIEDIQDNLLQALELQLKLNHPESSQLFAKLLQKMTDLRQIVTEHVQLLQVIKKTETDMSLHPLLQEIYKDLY
# Serotonin 5-HT1A = Serotonin 5-HT1A (Homo sapiens, UniProt P08908); assay: Off target activity panel; assay type: binding; conditions: read-out: Inhibition at test concentration (%)
# Serotonin 5-HT2A = Serotonin 5-HT2A (Homo sapiens, UniProt P28223); assay: Off target activity panel; assay type: binding; conditions: read-out: Inhibition at test concentration (%)
# Serotonin 5-HT2C = Serotonin 5-HT2C (Homo sapiens, UniProt P28335); assay: Off target activity panel (first 5-HT2C line); assay type: binding; conditions: read-out: Inhibition at test concentration (%)
# Serotonin 5-HT6 = Serotonin 5-HT6 (Homo sapiens, UniProt P50406); assay: Off target activity panel; assay type: binding; conditions: read-out: Inhibition at test concentration (%)
# Kappa opioid receptor = Kappa opioid receptor (Homo sapiens, UniProt P41145); assay: Off target panel, functional activity (agonist/antagonist); assay type: biochemical; conditions: at 10 µM
# hERG potassium channels = hERG potassium channels (Homo sapiens, UniProt Q12809)
# [12] = 10 µM, read-out: Inhibition at test concentration (%)
# Chain of Lyn A kinase (P07948 whole entry): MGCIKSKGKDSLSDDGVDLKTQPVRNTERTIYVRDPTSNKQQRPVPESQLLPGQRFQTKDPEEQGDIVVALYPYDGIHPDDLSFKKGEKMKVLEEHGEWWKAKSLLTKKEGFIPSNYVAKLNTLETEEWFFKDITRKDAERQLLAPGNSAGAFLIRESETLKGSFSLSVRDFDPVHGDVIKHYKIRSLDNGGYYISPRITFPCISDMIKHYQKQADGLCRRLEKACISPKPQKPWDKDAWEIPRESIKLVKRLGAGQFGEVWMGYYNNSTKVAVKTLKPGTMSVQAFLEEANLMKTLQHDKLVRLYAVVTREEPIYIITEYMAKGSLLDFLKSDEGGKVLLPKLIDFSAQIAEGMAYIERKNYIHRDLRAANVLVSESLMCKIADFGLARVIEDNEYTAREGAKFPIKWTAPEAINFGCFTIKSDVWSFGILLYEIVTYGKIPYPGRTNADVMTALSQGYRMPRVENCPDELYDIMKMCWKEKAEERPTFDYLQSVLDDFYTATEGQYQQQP
# Chain of Serotonin 5-HT2A (P28223 whole entry): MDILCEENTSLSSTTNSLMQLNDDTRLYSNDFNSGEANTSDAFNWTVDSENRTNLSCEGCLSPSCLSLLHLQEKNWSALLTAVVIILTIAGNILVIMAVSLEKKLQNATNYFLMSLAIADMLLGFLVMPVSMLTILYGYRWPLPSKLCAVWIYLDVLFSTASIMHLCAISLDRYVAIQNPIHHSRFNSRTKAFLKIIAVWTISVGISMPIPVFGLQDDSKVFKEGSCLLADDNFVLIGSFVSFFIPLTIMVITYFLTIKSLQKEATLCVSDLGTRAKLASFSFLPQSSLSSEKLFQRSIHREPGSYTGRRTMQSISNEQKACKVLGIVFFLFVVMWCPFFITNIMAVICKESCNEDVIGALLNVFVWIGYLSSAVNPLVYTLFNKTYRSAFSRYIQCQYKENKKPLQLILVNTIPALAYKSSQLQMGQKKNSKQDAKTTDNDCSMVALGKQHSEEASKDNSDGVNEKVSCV
# Chain of Matrix metalloprotease 9 (P14780 94-707): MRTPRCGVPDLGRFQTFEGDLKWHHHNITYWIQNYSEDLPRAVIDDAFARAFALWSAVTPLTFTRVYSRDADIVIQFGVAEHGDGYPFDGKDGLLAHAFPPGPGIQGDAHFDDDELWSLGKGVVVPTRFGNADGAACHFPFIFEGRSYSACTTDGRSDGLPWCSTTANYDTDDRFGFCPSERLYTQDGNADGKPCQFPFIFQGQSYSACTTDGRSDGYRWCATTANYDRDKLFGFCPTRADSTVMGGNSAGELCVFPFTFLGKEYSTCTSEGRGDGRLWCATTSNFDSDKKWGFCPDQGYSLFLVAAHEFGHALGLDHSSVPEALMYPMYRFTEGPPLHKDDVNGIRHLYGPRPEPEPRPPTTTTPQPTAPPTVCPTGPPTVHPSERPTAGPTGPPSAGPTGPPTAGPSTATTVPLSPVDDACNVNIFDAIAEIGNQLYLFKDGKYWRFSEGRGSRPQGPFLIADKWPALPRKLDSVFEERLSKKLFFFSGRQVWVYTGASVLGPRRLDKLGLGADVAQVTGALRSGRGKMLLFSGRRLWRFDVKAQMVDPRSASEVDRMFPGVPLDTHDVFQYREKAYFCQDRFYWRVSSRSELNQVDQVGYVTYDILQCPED
# Chain of hERG potassium channels (Q12809 whole entry): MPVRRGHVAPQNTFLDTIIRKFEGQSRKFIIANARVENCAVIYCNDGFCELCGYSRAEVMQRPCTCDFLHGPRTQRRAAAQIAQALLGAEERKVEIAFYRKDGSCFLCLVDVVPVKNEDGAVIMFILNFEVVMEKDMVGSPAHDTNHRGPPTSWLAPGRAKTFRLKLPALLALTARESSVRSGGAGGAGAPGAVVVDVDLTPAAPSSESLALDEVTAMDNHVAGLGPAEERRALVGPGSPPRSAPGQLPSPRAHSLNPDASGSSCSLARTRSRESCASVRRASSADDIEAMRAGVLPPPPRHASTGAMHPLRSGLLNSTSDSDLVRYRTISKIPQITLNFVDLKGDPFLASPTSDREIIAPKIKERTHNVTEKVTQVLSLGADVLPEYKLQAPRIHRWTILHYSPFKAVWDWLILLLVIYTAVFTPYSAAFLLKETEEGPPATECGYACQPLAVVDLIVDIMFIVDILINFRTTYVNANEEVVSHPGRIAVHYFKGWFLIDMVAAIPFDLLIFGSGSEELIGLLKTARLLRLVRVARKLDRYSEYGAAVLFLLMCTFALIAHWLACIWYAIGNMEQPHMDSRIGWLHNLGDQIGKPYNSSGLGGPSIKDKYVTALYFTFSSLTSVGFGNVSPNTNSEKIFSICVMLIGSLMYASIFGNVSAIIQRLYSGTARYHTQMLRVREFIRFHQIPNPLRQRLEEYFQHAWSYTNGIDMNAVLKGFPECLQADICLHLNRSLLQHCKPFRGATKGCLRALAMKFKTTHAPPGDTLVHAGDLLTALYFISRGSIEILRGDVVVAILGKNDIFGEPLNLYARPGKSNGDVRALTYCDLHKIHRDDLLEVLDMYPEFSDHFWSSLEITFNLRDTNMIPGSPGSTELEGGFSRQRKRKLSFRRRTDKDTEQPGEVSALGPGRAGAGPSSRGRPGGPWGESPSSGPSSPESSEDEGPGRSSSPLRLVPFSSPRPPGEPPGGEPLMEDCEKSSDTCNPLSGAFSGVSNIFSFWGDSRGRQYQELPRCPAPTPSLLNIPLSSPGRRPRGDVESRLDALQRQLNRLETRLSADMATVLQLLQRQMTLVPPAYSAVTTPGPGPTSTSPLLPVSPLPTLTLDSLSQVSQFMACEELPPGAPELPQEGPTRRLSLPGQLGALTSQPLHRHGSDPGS
# Chain of Dopamine D1 receptor (P21728 whole entry): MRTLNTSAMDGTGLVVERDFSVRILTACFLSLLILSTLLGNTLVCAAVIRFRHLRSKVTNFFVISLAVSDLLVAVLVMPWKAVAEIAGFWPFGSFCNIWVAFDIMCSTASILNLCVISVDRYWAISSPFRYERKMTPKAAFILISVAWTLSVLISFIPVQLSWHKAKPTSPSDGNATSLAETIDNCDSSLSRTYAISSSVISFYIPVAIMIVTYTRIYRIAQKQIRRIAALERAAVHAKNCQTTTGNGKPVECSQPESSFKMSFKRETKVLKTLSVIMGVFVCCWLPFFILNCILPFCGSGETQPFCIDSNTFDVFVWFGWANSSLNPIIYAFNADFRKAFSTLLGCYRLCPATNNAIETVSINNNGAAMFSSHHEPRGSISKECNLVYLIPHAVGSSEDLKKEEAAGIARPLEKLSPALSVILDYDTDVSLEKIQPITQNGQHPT
# Chain of Abl kinase receptor (P00519 whole entry): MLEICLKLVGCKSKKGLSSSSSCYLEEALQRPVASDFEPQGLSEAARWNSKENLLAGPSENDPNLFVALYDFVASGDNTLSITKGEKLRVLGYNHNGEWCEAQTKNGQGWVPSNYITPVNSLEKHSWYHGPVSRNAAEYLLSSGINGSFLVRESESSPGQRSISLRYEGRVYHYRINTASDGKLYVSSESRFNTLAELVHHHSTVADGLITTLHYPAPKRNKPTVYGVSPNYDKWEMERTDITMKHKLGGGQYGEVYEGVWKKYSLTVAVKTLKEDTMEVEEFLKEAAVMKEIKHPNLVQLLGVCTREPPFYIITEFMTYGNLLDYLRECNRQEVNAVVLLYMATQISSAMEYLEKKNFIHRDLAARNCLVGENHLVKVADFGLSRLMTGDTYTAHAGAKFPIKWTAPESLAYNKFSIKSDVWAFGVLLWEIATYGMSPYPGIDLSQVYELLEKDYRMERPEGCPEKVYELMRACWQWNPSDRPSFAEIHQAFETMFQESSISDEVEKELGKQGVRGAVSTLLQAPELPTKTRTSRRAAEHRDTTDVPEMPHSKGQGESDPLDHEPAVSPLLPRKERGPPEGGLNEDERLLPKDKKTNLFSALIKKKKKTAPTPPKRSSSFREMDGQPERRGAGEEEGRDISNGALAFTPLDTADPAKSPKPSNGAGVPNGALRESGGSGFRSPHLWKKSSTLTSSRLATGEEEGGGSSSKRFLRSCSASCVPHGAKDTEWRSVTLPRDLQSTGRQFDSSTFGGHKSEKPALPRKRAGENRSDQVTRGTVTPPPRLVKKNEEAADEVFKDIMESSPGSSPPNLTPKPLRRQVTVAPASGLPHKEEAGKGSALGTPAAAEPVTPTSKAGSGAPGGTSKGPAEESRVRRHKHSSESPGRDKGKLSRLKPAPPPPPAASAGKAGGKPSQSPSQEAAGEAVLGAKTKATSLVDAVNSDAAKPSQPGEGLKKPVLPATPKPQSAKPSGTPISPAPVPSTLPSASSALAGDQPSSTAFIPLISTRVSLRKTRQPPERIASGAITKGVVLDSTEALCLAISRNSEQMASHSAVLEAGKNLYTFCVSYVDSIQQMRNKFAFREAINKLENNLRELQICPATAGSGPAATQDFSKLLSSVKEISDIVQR
# Chain of Serotonin 5-HT2C (P28335 33-458): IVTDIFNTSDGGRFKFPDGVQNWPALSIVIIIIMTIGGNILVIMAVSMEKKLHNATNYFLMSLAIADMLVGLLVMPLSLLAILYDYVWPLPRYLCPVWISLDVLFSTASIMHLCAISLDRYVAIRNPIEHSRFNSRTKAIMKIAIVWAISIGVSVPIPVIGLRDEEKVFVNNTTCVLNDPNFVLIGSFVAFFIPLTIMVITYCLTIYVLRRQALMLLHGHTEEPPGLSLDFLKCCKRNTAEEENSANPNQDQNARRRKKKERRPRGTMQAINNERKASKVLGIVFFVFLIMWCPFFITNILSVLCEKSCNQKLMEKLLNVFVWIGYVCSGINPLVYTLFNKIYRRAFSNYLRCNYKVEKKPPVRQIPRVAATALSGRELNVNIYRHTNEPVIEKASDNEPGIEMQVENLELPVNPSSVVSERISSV
compound,measurement,setting,value
"Nc1[nH]ncc1-c1cc(Cl)ccc1Oc1cc(F)c(S(=O)(=O)Nc2cscn2)cc1Cl [PF-05089771, 4-[2-(5-amino-1H-pyrazol-4-yl)-4-chlorophenoxy]-5-chloro-2-fluoro-N-(1,3-thiazol-4-yl)benzenesulfonamide]",IC50,L-type calcium channels,10 µM
same,IC50,KvLQT,10 µM
same,Block of TTX-S current,"[1]; 30 nM, in presence of A-803467",75.5 ± 10.5%
same,Block of TTX-S current,[1]; 100 nM,complete block
same,IC50,"[1]; DRG neuron, read-out: IC50 for TTX-S current block",0.0084 ± 0.0012 µM
same,Neurons with action potential block,[2]; 30 nM,3 out of 7 and 3/7
same,Neurons with action potential failure,[2]; 100 nM,5 out of 8 and 5/8
same,inhibition at 10 µM,Adenosine A1 receptor,15%
same,inhibition at 10 µM,Abl kinase receptor,9%
same,inhibition at 10 µM,[3],-4%
same,inhibition at 10 µM,Acetylcholinesterase,17%
same,Inhibition at test concentration (%),AMPA receptor,-13%
same,Inhibition at test concentration (%),[4],4%
same,Inhibition at test concentration (%),[5],-6%
same,inhibition at 10 µM,Carbonic anhydrase II,21%
same,inhibition at 10 µM,Choline transporter,18%
same,inhibition at 10 µM,[6],17%
same,inhibition at 10 µM,Cyclooxygenase 1,18%
same,inhibition at 10 µM,Delta opioid receptor,15%
same,inhibition at 10 µM,Dopamine D1 receptor,0%
same,inhibition at 10 µM,Histamine H2 receptor,-3%
same,inhibition at 10 µM,Lyn A kinase; [12],51%
same,Ki,Lyn A kinase; Lyn A kinase,7.3 µM
same,inhibition at 10 µM,Matrix metalloprotease 9,-3%
same,inhibition at 10 µM,[7],-7%
same,inhibition at 10 µM,Monoamine oxidase A,-13%
same,inhibition at 10 µM,[8],64%
same,inhibition at 10 µM,Mu opiod receptor,7%
same,inhibition at 10 µM,Neurokinin NK2 receptor,-10%
same,Inhibition at test concentration (%),[9],-7%
same,Inhibition at test concentration (%),[10],-3%
same,inhibition at 10 µM,[11],27%
same,inhibition at 10 µM,PDE2A,9%
same,inhibition at 10 µM,PDE5,7%
same,inhibition at 10 µM,PPAR gamma; [12],60%
same,Ki,PPAR gamma; PPAR gamma,2.8 µM
same,inhibition at 10 µM,Serotonin 5-HT1A,13%
same,inhibition at 10 µM,Serotonin 5-HT2A,-2%
same,inhibition at 10 µM,Serotonin 5-HT2C,-4%
same,inhibition at 10 µM,Serotonin 5-HT6,2%
same,Functional activity,Kappa opioid receptor,no agonist or antagonist activity at 10 µM
same,IC50,hERG potassium channels,10 µM
